Tests used:
[1] = target: T1, Therminator DNA polymerase (Thermococcus sp., UniProt Q56366, A485L/D141A/E143A); test: Primer extension by Therminator DNA polymerase (P1/T3, P1/T5); format: biochemical, (9° N-7) Thermococcus sp.
T1 construct: purchased Westburg (NEB)
Experimental: (§1) Primer extension study with HIV RT and Therminator DNA polymerase was performed in a fashion similar to the single nucleotide incorporation experiments. Two sets of primer/template complexes were used: P1/T3 and P1/T5.
(§2) In the case of Therminator DNA polymerase, the enzyme was obtained from Westburg (NEB) (2 U/μL) and the reactions were carried out in a 10× Thermopol reaction buffer containing 20 mM TRIS.HCl, 10 mM KCl, 2 mM MgSO4, 0.1% Triton X-100, pH 8.8. The final concentration of the Therminator DNA pol in the reaction mixture was 8.33×10^−4 U/μL. The polymerase reaction involving Therminator DNA polymerase or any other thermostable polymerase (Vent (exo^−), Taq DNA polymerase) was carried out in a similar way as the HIV RT reaction with some modifications. The dNTP solutions and the primer/template/DNA polymerase mixture solutions were topped with mineral oil (30-60 μL) and pre-incubated at 70° C. for 2 minutes. The polymerase reactions were performed at 70° C. as well.

Taq DNA polymerase = Taq DNA polymerase (Thermus aquaticus, UniProt P19821); test: Single nucleotide incorporation by Taq DNA polymerase; format: biochemical
Experimental: (§3) Reaction conditions: Primer (P1) was 5′-labeled with ^33P followed by annealing to a template T1; 125 nM primer/template (P1/T1), [Taq]=0.005 U/μL, [Vent]=0.005 U/μL, [KF]=0.05 U/μL; time intervals: 5, 15, 30, 60, 90 and 120 minutes.
as §2

HIV RT [2] = target: T2, HIV RT (Human immunodeficiency virus type 1 group M subtype B, UniProt P03366); test: Primer extension by HIV RT (P1/T3, P1/T5); format: biochemical, HIV-1; conditions: T3 template
T2 construct: HIV RT polymerase was purchased from GE Healthcare; purchased GE Healthcare (Amersham Bioscience)
Experimental: A typical single nucleotide incorporation and primer extension assays using HIV RT polymerase was carried out similar to one described in the literature. HIV RT polymerase was purchased from GE Healthcare and was supplied as either 12 or 30 U/μL stock solution. The final concentration of HIV RT in a reaction mixture was 0.03-0.003 U/μL. A primer/template duplex mixture was prepared by combining appropriate amounts of a 5′-^33P-labeled primer (P1) and a template in 1:2 molar ratio to provide a 4× solution with 0.5 μM primer concentration. The polymerase reactions were carried out in a 5×RT buffer containing 250 mM TRIS.HCL, 250 mM KCl, 50 mM MgCl2, 2.5 mM spermidine, 50 mM DTT, pH 8.3. For the single nucleotide incorporation assay, a P1/T1 primer-template pair was used whereas the primer extension study was performed with P1/T3 and P1/T5 primer-template pairs.
as §1

[3] = target: Vent (exo−) DNA polymerase (Thermococcus litoralis, UniProt P30317, D141A/DEL1082-1471/DEL495-1032/E143A); test: Single nucleotide incorporation by Vent (exo−) DNA polymerase; format: biochemical
Experimental: as §3, §2

HIV RT [4] = target: T2, HIV RT; test: Steady state kinetics of single nucleotide incorporation by HIV RT (P1/T1); format: biochemical, HIV-1
Experimental: The steady steate kinetics of a single nucleotide incorporation of an amino acid phosphoramidate (AA-dAMP) and of a natural nucleoside triphosphate (dATP) was determined by the gel-based polymerase assay. In all the experiments, the template T1 and the primer P1 were used (Table 1). The primer and template in 1:2 molar ratio were hybridized in a buffer containing 20 mM TRIS.HCl, 10 mM KCl, 2 mM MgSO4, 0.1% Triton X-100, pH 8.8 and used in an amount to provide 125 nM concentration of the primer in each 12 μL reaction. The range of concentrations for amino acid phosphoramidates was optimized according to a Km value for the incorporation of an individual nucleotide. In the case of HIV RT (Amersham Bioscience (GE Healthcare), 30 U/μL), reaction mixtures containing the enzyme in concentration to attain 5-20% conversion and appropriate substrate concentration (nucleoside phosphoramidate or natural dNTP) were incubated at 37° C. and run for 8-10 different time intervals. Kinetic analysis of single nucleotide incorporation by Therminator DNA polymerase (NEB, 2 U/μL) was performed similarly except the incubations and polymerase reactions, which were carried out at 70° C. To prevent solvent condensation/evaporation, the reaction mixtures were topped with mineral oil. The reactions were quenched by addition of the buffer containing 80% formamide, 2 mM EDTA, 1×TBE buffer. The analysis of polymerase reactions was performed by polyacrylamide gel electrophoresis (20% (19:1 mono:bis), 7M urea, 30 cm×40 cm×0.4 mm). The relative band intensities were measured using OptiQuant software. The rates of incorporation (V) were calculated based on the percentage of the extension production (n+1 band). The kinetic parameters (Vmax and Km) were determined by plotting V (pmol/min·U) versus substrate concentration and fitting the data point to a rectangular hyperbola using GraphPad Prism software.

[5] = target: T1, Therminator DNA polymerase; test: Single nucleotide incorporation by Therminator DNA polymerase; format: biochemical, (9° N-7) Thermococcus sp.
Experimental: as §2

KF (exo−) DNA polymerase = target: T3, KF (exo−) DNA polymerase (Escherichia coli, UniProt P00582, D355A/E357A); test: Single nucleotide incorporation by KF (exo−) DNA polymerase; format: biochemical; conditions: 60 minutes
T3 construct: Klenow Fragment (KF) (exo^−) DNA polymerase
Experimental: as §3

T1 sequence (Q56366 whole entry D141A/E143A/A485L): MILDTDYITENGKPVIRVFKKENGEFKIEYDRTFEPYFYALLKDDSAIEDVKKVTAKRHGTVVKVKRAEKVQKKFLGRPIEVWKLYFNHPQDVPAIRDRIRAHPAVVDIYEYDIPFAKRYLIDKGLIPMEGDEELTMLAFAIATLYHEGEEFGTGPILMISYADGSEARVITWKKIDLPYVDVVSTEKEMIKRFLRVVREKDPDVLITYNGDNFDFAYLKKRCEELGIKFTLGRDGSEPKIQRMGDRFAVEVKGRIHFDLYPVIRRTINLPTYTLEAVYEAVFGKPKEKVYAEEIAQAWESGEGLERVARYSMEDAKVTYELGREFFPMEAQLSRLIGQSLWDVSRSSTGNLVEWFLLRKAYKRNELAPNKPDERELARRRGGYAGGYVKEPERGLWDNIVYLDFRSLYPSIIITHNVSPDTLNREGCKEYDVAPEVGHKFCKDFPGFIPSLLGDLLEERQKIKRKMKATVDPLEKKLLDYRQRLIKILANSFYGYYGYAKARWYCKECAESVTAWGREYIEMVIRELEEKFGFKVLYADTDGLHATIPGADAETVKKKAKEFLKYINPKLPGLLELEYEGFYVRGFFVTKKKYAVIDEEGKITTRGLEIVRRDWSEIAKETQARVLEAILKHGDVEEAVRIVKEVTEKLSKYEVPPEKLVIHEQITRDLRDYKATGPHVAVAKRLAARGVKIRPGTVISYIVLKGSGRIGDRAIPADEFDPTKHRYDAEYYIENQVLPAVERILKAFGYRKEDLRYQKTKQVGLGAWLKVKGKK
Chain of Taq DNA polymerase (P19821 whole entry): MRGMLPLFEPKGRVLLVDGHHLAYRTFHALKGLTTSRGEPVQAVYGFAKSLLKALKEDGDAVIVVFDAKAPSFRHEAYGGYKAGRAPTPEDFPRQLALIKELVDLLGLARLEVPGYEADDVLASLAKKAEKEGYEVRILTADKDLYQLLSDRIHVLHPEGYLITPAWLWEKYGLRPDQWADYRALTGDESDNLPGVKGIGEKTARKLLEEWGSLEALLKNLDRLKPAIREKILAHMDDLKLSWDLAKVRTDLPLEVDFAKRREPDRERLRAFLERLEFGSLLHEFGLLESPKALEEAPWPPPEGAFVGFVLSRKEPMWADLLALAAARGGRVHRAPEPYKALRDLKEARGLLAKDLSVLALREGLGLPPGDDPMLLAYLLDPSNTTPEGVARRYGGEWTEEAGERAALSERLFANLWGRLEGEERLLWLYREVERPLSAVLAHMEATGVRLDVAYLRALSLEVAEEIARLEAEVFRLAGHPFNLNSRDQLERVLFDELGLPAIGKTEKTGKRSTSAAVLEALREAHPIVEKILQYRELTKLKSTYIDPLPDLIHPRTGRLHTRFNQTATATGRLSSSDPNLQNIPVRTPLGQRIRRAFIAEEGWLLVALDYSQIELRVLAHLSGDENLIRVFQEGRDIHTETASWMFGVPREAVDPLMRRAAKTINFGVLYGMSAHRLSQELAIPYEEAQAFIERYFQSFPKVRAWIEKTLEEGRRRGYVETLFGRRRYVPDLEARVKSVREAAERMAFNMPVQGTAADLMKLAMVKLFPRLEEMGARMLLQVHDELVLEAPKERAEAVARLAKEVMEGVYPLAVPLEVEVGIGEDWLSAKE
Chain of Vent (exo−) DNA polymerase (P30317 other isoform, or with tags, fused parts or gaps D141A/E143A/DEL495-1032/DEL1082-1471): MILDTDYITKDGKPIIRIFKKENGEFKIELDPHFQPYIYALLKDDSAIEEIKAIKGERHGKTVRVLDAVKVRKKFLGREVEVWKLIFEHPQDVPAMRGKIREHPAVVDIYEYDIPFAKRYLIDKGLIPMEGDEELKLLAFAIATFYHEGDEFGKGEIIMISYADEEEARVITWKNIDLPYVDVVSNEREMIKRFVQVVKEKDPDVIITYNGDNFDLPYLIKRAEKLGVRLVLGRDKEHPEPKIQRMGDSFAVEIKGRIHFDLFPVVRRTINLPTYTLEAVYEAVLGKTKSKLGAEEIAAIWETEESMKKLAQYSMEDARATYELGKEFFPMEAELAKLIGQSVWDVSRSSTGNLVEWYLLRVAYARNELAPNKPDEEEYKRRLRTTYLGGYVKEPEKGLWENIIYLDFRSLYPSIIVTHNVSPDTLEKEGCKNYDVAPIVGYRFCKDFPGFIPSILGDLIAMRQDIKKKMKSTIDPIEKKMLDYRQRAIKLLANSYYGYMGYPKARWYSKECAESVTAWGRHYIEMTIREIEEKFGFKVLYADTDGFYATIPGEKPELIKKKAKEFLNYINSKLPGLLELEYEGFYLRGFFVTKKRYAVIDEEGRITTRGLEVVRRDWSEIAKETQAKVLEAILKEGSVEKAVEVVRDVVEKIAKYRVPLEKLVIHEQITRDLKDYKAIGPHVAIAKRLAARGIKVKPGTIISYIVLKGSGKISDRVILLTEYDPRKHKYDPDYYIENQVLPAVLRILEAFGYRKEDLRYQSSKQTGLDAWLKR
T3 sequence (P00582 324-928 D355A/E357A): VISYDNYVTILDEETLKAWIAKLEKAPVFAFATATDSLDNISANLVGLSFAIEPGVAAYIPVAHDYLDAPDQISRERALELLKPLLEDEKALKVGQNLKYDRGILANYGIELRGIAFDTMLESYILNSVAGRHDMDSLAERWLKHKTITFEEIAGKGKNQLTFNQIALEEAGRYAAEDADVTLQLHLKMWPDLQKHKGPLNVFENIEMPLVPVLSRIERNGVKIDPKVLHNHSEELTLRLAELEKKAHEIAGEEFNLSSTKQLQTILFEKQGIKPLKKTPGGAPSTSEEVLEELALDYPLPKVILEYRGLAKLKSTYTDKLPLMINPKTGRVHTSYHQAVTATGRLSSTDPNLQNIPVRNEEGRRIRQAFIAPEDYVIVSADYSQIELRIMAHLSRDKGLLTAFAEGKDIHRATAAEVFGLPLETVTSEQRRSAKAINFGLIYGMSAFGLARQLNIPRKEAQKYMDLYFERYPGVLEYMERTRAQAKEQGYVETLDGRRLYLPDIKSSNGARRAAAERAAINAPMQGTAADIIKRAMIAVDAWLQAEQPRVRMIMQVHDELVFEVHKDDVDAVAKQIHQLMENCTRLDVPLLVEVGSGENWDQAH

Substance: 2′-deoxy-adenosine-5′-aspartyl-phosphoramidate [Compound 1]
- primer extension ([1]; T3 template): successfully incorporated
- number of adenine residues incorporated ([1]; T5 template, overhang of seven thymidine residues): up to five adenine residues
- insertion into a growing primer strand (Taq DNA polymerase): failed to insert
- primer extension product (HIV RT [2]): extend a primer with three adenine nucleobases (n+3 product)
- (n+3) product (HIV RT [2]; 60 minutes, 500 μM substrate): 5.2%
- n+2 product (HIV RT [2]; 60 minutes, 500 μM substrate): 56.3%
- insertion into a growing primer strand [3]: failed to insert
- Km, fold higher as compared to dATP (HIV RT [4]): 400 fold
- Vmax, fold lower than natural substrate dATP (HIV RT [4]): 3 fold
- specificity (Vmax/Km), fold reduced vs natural substrate (HIV RT [4]): 1300 fold
- Km (HIV RT [4]; P1/T1, 37° C.): 185 ± 24.5 µM
- Vmax (HIV RT [4]; P1/T1, 37° C.): 2.63 ± 0.13 pmol/min · U
- primer extension ([5]; 60 min, 500 μM nucleoside concentration): 25.2%
- incorporation as Therminator DNA polymerase substrate ([5]; single nucleotide incorporation, P1/T1): act effectively as alternative substrates
- conversion of the primer strand (KF (exo−) DNA polymerase): 32.5%
